Where a name gives a salt, the structure may show the parent alone.

The text below walks through data of US4803221A, “Anthracene derivatives” (priority 1987, dated 1989).

For data set [1], the system named is Herpes simplex 1/vero. The data set is described as follows: Herpes simplex 1/vero plaque inhibition screen. The format is cell-based. The text has this: The column headings labeled Score, Toxicity, and Zone of Inhibition refer to the plaque inhibition screen while the IC50 heading to the plaque reduction screen.
The test system of data set [2] is lymphocytic leukemia P388/0. The data set is described as follows: Lymphocytic Leukemia P388/0 Test. Particulars: ip days 1, 5, 9; for LD20: doses on a mg/kg basis; for T/C × 100% (Excluding 30 Day Survivors): median survival time treated/control, at the optimal dose of the compound (Table I), active if ≥120%. The format is in vivo, mouse (CD2-F1). Details: LD20: unit: mg/kg. The text has this: (§1) Methods for evaluating the antitumor activity of these compounds are essentially those used in the Tumor Panel by the Developmental Therapeutics Program, Division of Cancer Treatment, National Cancer Institute, A. Goldin, et al., Methods in Cancer Research, Vol. XVI, p.165, Academic Press (1979). Some modifications, in dose level and schedule have been made to increase the testing efficiency.
(§2) CD2-F1 mice, of the same sex, weighing 20±3 g are used for this test. Control and test animals are injected intraperitoneally with a suspension of ~10^6 viable P388/0 tumor cells on day 0. In each test, several dose levels which bracket the LD20 of the compound are evaluated; each dose level group contains six animals. The test compounds are prepared either in physiologic saline containing 0.05% Tween 80 or distilled water containing 5% dextrose and are administered intraperitoneally on days 1, 5, and 9 relative to tumor implant. Doses are on a mg/kg basis according to individual animals' body weights. The day of death for each animal is recorded, the median identified for each group and the ratios of median survival time for treated (T)/control (C) Groups are calculated. The criterion for activity is T/C×100≥120%.

A short description of data set [3]: Lymphocytic Leukemia P388/0 Test. The format is in vivo, mouse (CD2-F1). More on the design: LD20: unit: mg/kg. Particulars: mouse, in vivo; ip days 1, 5, 9; doses on a mg/kg basis; read-out: highest nontoxic dose where the LD20 was not determined (values in parentheses in LD20 column).
From the text: as §1, §2

With “2-(((2-Ethyl-9-anthracenyl)methyl)amino)-2-methyl-1,3-propanediol and 2-(((3-ethyl-9-anthracenyl)methyl)amino)-2-methyl-1,3-propanediol hydrochloride.1/4H2 O [Example 31C]”, the Toxicity result in data set [1] was “Y”.

As for `C[C@H](O)[C@@](C)(CO)NCc1c2ccccc2cc2ccccc12` (relative stereo) [Example 30G, (+-)(2R*,3S*)-2-((9-Anthracenylmethyl)amino)-2-methyl-1,3-butanediol hydrochloride 1/4H2 O], in data set [2], the LD20 is 180 and the “T/C × 100% (Excluding 30 Day Survivors)” value is reported as “+136%”.

Turning to `CC(CO)(CO)NCc1c2ccccc2c(CCCl)c2ccccc12.Cl` [Example 4B, 2-(((10-(2-chloroethyl)-9-anthracenyl)methyl)amino)-2-methyl-1,3-propanediol hydrochloride], in data set [3], the MTD came out at 300 mg/kg. In addition, in data set [2], the “T/C × 100% (Excluding 30 Day Survivors)” value was “+225%”.

As for `CC(CO)(CO)NCc1c2ccccc2c(Cl)c2c(Cl)cccc12.Cl` [Example 5C, 2-(((4,10-dichloro-9-anthracenyl)methyl)amino)-2-methyl-1,3-propanediol hydrochloride], in data set [3], the MTD is 300 mg/kg. Moreover, the “T/C × 100% (Excluding 30 Day Survivors)” value in data set [2] was “+204%”.

With `CC(CO)(CO)NCc1c2ccccc2c(CO)c2ccccc12` [Example 6, 2-(((10-Hydroxymethyl-9-anthracenyl)methyl)amino)-2-methyl-1,3-propanediol hydrochloride 1/4H2 O], in data set [2], the LD20 was found to be 180 and the “T/C × 100% (Excluding 30 Day Survivors)” value was “+170%”.

Take `CC(CO)(CO)NCc1c2ccccc2c(Br)c2ccccc12.Cl` [Example 8B, 2-(((10-Bromo-9-anthracenyl)methyl)amino)-2-methyl-1,3-propanediol hydrochloride]: the MTD in data set [3] turned out to be 450 mg/kg. The “T/C × 100% (Excluding 30 Day Survivors)” value in data set [2] was “+200%”.

Take `C[S+]([O-])c1c2ccccc2c(CNC(C)(CO)CO)c2ccccc12.Cl` (stereo not shown) [Example 12B, 2-Methyl-2-(((10-methylsulfinyl-9-anthracenyl)methyl)amino)-1,3-propanediol hydrochloride]: in data set [2], the LD20 is 55 and the “T/C × 100% (Excluding 30 Day Survivors)” value is reported as “+220%”.

In the case of `CC(CO)(CO)NCc1c2ccccc2c(C#N)c2ccccc12.Cl` [Example 14B, 10-((1,1-Bis(hydroxymethyl)ethylamino)methyl)-9-anthracenecarbonitrile hydrochloride], in data set [2], the LD20 is 387 and the “T/C × 100% (Excluding 30 Day Survivors)” value was “+190%”.

In the case of `CC(CO)(CO)NCc1cccc2cc3ccccc3cc12` [Example 15E, 2-((1-Anthracenylmethyl)amino)-2-methyl-1,3-propanediol hydrochloride], in data set [2], the LD20 worked out at 7 and the “T/C × 100% (Excluding 30 Day Survivors)” value is given as “+204%”.

With `CC(CO)(CO)NCc1cccc2c(Br)c3ccccc3cc12.Cl` [Example 16C, 2-(((10-Bromo-1-anthracenyl)methyl)amino)-2-methyl-1,3-propanediol hydrochloride], the MTD in data set [3] turned out to be 300 mg/kg. In addition, the “T/C × 100% (Excluding 30 Day Survivors)” value in data set [2] is reported as “+225%”.

For the compound `CC(CO)(CO)NCc1c2ccccc2cc2ccc(Cl)cc12.Cl` [Example 17C, 2-(((2-Chloro-9-anthracenyl)methyl)amino)-2-methyl-1,3-propanediol hydrochloride], in data set [2], the LD20 came to 150 and the “T/C × 100% (Excluding 30 Day Survivors)” value is given as “+170%”.

With `CC(CO)(CO)NCc1c2ccccc2cc2cc(Cl)ccc12` [Example 18, 2-(((3-Chloro-9-anthracenyl)methyl)amino-2-methyl-1,3-propanediol hydrochloride], the MTD in data set [3] was determined as 675 mg/kg. For the same compound, the “T/C × 100% (Excluding 30 Day Survivors)” value in data set [2] is “+181%”.

Take `CCSc1c2ccccc2c(CNC(C)(CO)CO)c2ccccc12.Cl` [Example 19B, 2-(((10-ethylthio-9-anthracenyl)methyl)amino)-2-methyl-1,3-propanediol hydrochloride]: in data set [2], the LD20 came out at 625 and the “T/C × 100% (Excluding 30 Day Survivors)” value is “+145%”.

In the case of `CC(CO)(CO)NCc1c2ccccc2c(SCCO)c2ccccc12.Cl` [Example 20B, 2-(((10-(2-hydroxyethylthio)-9-anthracenyl)methyl)amino)-2-methyl-1,3-propanediol hydrochloride], in data set [2], the LD20 is listed as 440 and the “T/C × 100% (Excluding 30 Day Survivors)” value is “+145%”.

On to `Cl.OCC(CO)(CO)NCc1c2ccccc2c(Cl)c2ccccc12` [Example 21, 2-(((10-Chloro-9-anthracenyl)methyl)amino)-2-hydroxymethyl-1,3-propanediol hydrochloride], for which, in data set [2], the LD20 amounted to 440 and the “T/C × 100% (Excluding 30 Day Survivors)” value was “+140%”.

`CC(CO)(CO)NCc1c2ccccc2c(Cl)c2ccc(Cl)cc12.Cl` [Example 22C, 2-(((2,10-dichloro-9-anthracenyl)methyl)amino)-2-methyl-1,3-propanediol hydrochloride]: in data set [3], the MTD came out at 400 mg/kg. In data set [2], the “T/C × 100% (Excluding 30 Day Survivors)” value is listed as “+200%”.

For the compound `CC(CO)(CO)NCc1c2ccccc2c(Cl)c2cc(Cl)ccc12.Cl` [Example 23, 2-(((3,10-dichloro-9-anthracenyl)methyl)amino)-2-methyl-1,3-propanediol hydrochloride], in data set [3], the MTD is 300 mg/kg. Further, the “T/C × 100% (Excluding 30 Day Survivors)” value in data set [2] was “+210%”.

In the case of `CCOc1c2ccccc2c(CNC(C)(CO)CO)c2ccccc12.Cl` [Example 24B, 2-(((10-Ethoxy-9-anthracenyl)methyl)amino)-2-methyl-1,3-propanediol hydrochloride], in data set [2], the LD20 is given as 96 and the “T/C × 100% (Excluding 30 Day Survivors)” value is “+218%”.

Regarding `CC(CO)(CO)NCc1c2ccccc2c(S(C)(=O)=O)c2ccccc12.Cl` [Example 26B, 2-Methyl-2-(((10-methylsulfonyl-9-anthracenyl)methyl)amino)-1,3-propanediol hydrochloride], the MTD in data set [3] was determined as 300 mg/kg. For the same compound, in data set [2], the “T/C × 100% (Excluding 30 Day Survivors)” value is given as “+228%”.

For `COCCOc1c2ccccc2c(CNC(C)(CO)CO)c2ccccc12` [Example 27B, 2-(((10-(2-Methoxyethoxy)-9-anthracenyl)methyl)amino)-2-methyl-1,3-propanediol hydrochloride 1/4H2 O], in data set [2], the LD20 is on record as 180 and the “T/C × 100% (Excluding 30 Day Survivors)” value is “+260%”.

In the case of `CC(CO)(CO)NCc1c2ccccc2c(N2CCOCC2)c2ccccc12` [Example 28B, 2-Methyl-2-((((10-N-morpholino)-9-anthracenyl)methyl)amino)-1,3-propanediol methanesulfonate.3/4H2 O], in data set [2], the LD20 is 225 and the “T/C × 100% (Excluding 30 Day Survivors)” value is “+235%”.

Consider `COCC(C)(CO)NCc1c2ccccc2cc2ccccc12.Cl` (stereo not shown) [Example 33D, 2-((9-Anthracenylmethyl)amino)-3-methoxy-2-methyl-1-propanol hydrochloride], for which the “Zone of Inhibition” value in data set [1] (plaque inhibition screen) was 35.

With `CC(C)C(CO)(CO)NCc1c2ccccc2cc2ccccc12` [Example 35C, 2-((9-Anthracenylmethyl)amino)-2-isopropyl-1,3-propanediol methanesulfonate], in data set [2], the LD20 is 450 and the “T/C × 100% (Excluding 30 Day Survivors)” value is on record as “+150%”.

Turning to `CC(CO)(CCO)NCc1c2ccccc2cc2ccccc12.CS(=O)(=O)O` (stereo not shown) [Example 36G, 2-((9-anthracenylmethyl)amino)-2-methyl-1,4-butanediol methanesulfonate], in data set [2], the LD20 is given as 120 and the “T/C × 100% (Excluding 30 Day Survivors)” value was “+125%”.

In the case of `CC(CO)(CO)NCc1cccc2c(Cl)c3ccccc3cc12` [Example 37E, 2-(((10-Chloro-1-anthracenyl)methyl)amino)-2-methyl-1,3-propanediol methanesulfonate.9/20 H2 O], in data set [2], the LD20 came out at 140 and the “T/C × 100% (Excluding 30 Day Survivors)” value is reported as “+145%”.

For the compound `Cc1cc2c(Cl)c3ccccc3c(CNC(C)(CO)CO)c2cc1C.Cl` [Example 40B, 2-(((10-Chloro-2,3-dimethyl-9-anthracenyl)methyl)amino)-2-methyl-1,3-propanediol hydrochloride], the MTD in data set [3] came out at 300 mg/kg. The “T/C × 100% (Excluding 30 Day Survivors)” value in data set [2] is given as “+205%”.

As for `CC(CO)(CO)NCc1c2ccccc2c(Cl)c2ccc(C(C)(C)C)cc12.Cl` [Example 41C, 2-(((2-tert-butyl-10-chloro-9-anthracenyl)methyl)amino)-2-methyl-1,3-propanediol hydrochloride.1/4H2 O], in data set [2], the “T/C × 100% (Excluding 30 Day Survivors)” value was “+125%”.

Regarding `CCCCOc1c2ccccc2c(CNC(C)(CO)CO)c2ccccc12.Cl` [Example 44F, 2-(((10-Butoxy-9-anthracenyl)methyl)amino)-2-methyl-1,3-propanediol hydrochloride], in data set [2], the LD20 is given as 120 and the “T/C × 100% (Excluding 30 Day Survivors)” value is reported as “+120%”.

Turning to `CCCCc1c2ccccc2c(CNC(C)(CO)CO)c2ccccc12.Cl` [Example 45B, 2-(((10-Butyl-9-anthracenyl)methyl)amino)-2-methyl-1,3-propanediol hydrochloride], in data set [2], the LD20 was 212 and the “T/C × 100% (Excluding 30 Day Survivors)” value is given as “+170%”.
